Measured values taken from the NIST ThermoML archive (doi:10.1021/acs.jced.6b00959).

Test: molar heat capacity at constant pressure
Details: Liquid, Flow calorimetry

C=C(F)C(F)(F)F [2,3,3,3-tetrafluoro-1-propene]
Details | molar heat capacity at constant pressure [J/K/mol]
303.53 K, 2030 kPa | 157.15
303.55 K, 2530 kPa | 156.01
303.58 K, 1570 kPa | 160.11
303.6 K, 8010 kPa | 146.09
303.6 K, 8490 kPa | 146.2
303.6 K, 10010 kPa | 145.75
303.61 K, 6980 kPa | 146.66
303.61 K, 7490 kPa | 146.89
303.61 K, 8980 kPa | 145.75
303.61 K, 9470 kPa | 145.75
303.67 K, 10990 kPa | 144.49
303.72 K, 3040 kPa | 154.41
303.72 K, 10520 kPa | 144.95
303.73 K, 5000 kPa | 150.88
303.74 K, 3530 kPa | 154.18
303.75 K, 4020 kPa | 153.16
303.75 K, 5520 kPa | 150.19
303.77 K, 6510 kPa | 148.6
303.79 K, 11450 kPa | 144.03
303.79 K, 12070 kPa | 143.69
303.8 K, 5980 kPa | 148.82
303.81 K, 4520 kPa | 151.45
313.61 K, 6020 kPa | 154.3
313.63 K, 5000 kPa | 157.04
313.64 K, 4490 kPa | 158.18
313.64 K, 7500 kPa | 151.68
313.64 K, 7980 kPa | 151.11
313.65 K, 8490 kPa | 150.65
313.66 K, 1510 kPa | 166.04
313.66 K, 4000 kPa | 159.77
313.66 K, 6990 kPa | 152.82
313.67 K, 2010 kPa | 165.36
313.69 K, 2510 kPa | 165.02
313.69 K, 3000 kPa | 164.11
313.69 K, 6500 kPa | 153.96
313.7 K, 9500 kPa | 149.85
313.7 K, 10010 kPa | 149.51
313.7 K, 11460 kPa | 147.8
313.72 K, 3510 kPa | 162.62
313.72 K, 8970 kPa | 150.31
313.72 K, 10500 kPa | 148.94
313.72 K, 10980 kPa | 148.6
313.72 K, 12040 kPa | 147.46
313.79 K, 5490 kPa | 154.53
323.62 K, 2020 kPa | 170.26
323.63 K, 6940 kPa | 155.67
323.64 K, 7520 kPa | 154.98
323.64 K, 8000 kPa | 154.41
323.64 K, 8510 kPa | 153.73
323.65 K, 2500 kPa | 168.67
323.65 K, 9540 kPa | 152.25
323.66 K, 8960 kPa | 153.39
323.66 K, 9990 kPa | 152.02
323.68 K, 3010 kPa | 167.41
323.68 K, 10980 kPa | 151.11
323.69 K, 3510 kPa | 165.93
323.69 K, 4520 kPa | 162.51
323.69 K, 6490 kPa | 157.61
323.69 K, 10530 kPa | 151.79
323.7 K, 11470 kPa | 150.31
323.71 K, 3990 kPa | 164.79
323.71 K, 5020 kPa | 161.37
323.71 K, 5500 kPa | 159.89
323.71 K, 5990 kPa | 159.09
323.73 K, 12010 kPa | 150.08
333.61 K, 5490 kPa | 165.47
333.63 K, 3000 kPa | 179.5
333.63 K, 5980 kPa | 164.68
333.66 K, 3480 kPa | 177.56
333.66 K, 4500 kPa | 170.72
333.66 K, 7020 kPa | 161.71
333.67 K, 2080 kPa | 185.77
333.68 K, 2520 kPa | 183.95
333.68 K, 5000 kPa | 169.12
333.68 K, 6510 kPa | 162.74
333.69 K, 7500 kPa | 161.03
333.69 K, 9010 kPa | 159.09
333.69 K, 9990 kPa | 156.69
333.71 K, 4040 kPa | 175.4
333.72 K, 8010 kPa | 160.68
333.72 K, 8500 kPa | 159.66
333.72 K, 9490 kPa | 157.61
333.79 K, 10520 kPa | 155.21
333.79 K, 11000 kPa | 154.75
333.82 K, 11480 kPa | 154.07
333.82 K, 12030 kPa | 153.61
343.67 K, 10510 kPa | 157.83
343.68 K, 2530 kPa | 204.93
343.68 K, 3510 kPa | 187.26
343.68 K, 11500 kPa | 156.58
343.69 K, 11060 kPa | 156.92
343.7 K, 4490 kPa | 178.48
343.7 K, 9470 kPa | 159.89
343.7 K, 12010 kPa | 155.89
343.71 K, 7000 kPa | 165.47
343.72 K, 6040 kPa | 169.35
343.73 K, 6510 kPa | 168.55
343.73 K, 7500 kPa | 164.45
343.73 K, 7980 kPa | 163.76
343.74 K, 3990 kPa | 183.49
343.75 K, 5020 kPa | 175.74
343.75 K, 10020 kPa | 159.54
343.77 K, 8520 kPa | 163.19
343.79 K, 3010 kPa | 196.61
343.8 K, 9010 kPa | 162.51
343.81 K, 5560 kPa | 173.23
353.69 K, 10520 kPa | 163.99
353.71 K, 6510 kPa | 177.79
353.71 K, 8500 kPa | 169.24
353.73 K, 4510 kPa | 196.61
353.73 K, 4990 kPa | 190.11
353.73 K, 5500 kPa | 185.77
353.73 K, 11010 kPa | 162.85
353.74 K, 8990 kPa | 168.33
353.75 K, 6990 kPa | 175.97
353.76 K, 11520 kPa | 162.62
353.77 K, 9530 kPa | 166.96
353.78 K, 6040 kPa | 182.58
353.78 K, 12010 kPa | 161.94
353.79 K, 7490 kPa | 173.8
353.79 K, 10010 kPa | 165.93
353.81 K, 7990 kPa | 172.66
363.69 K, 6030 kPa | 189.42
363.73 K, 10520 kPa | 167.98
363.74 K, 5480 kPa | 198.2
363.75 K, 4510 kPa | 225
363.75 K, 7990 kPa | 175.85
363.76 K, 7020 kPa | 181.78
363.76 K, 10010 kPa | 169.12
363.76 K, 11050 kPa | 167.3
363.77 K, 6500 kPa | 186.46
363.78 K, 4990 kPa | 209.38
363.78 K, 7530 kPa | 178.7
363.78 K, 8990 kPa | 172.09
363.78 K, 11500 kPa | 166.96
363.79 K, 8510 kPa | 174.26
363.8 K, 9490 kPa | 171.06
363.83 K, 12080 kPa | 166.96
373.09 K, 4510 kPa | 297.19
373.19 K, 4990 kPa | 241.54
373.24 K, 5480 kPa | 217.82
373.28 K, 5980 kPa | 202.31
373.3 K, 6490 kPa | 191.25
373.3 K, 7000 kPa | 185.09
373.3 K, 7520 kPa | 180.3
373.32 K, 8030 kPa | 177.33
373.32 K, 8510 kPa | 174.94
373.32 K, 8990 kPa | 172.32
373.34 K, 9510 kPa | 171.52
373.36 K, 9990 kPa | 170.95
373.38 K, 10530 kPa | 169.58
373.39 K, 11020 kPa | 168.44
373.4 K, 11510 kPa | 167.87
373.42 K, 11980 kPa | 167.41
